Assay: Human HepG2 cell viability assay in 384 well format
Type: toxicity, cell-based
Set-up: dose 125 nL, time 70.5 hour; concentration not given beside the values
Settings: HepG2 cells, read-out: Inhibition

| Compound | cytotoxicity at 70.5 h [%] |
| --- | --- |
| CCOc1cc(CNCc2ncc[nH]2)c(Cl)cc1OC(C)C | 20.6 |
| CCCc1noc(C2CC(=O)N(C(C)(C)C)C2)n1 (stereo not drawn) | -16 |
| O=C(N1CCC2(CC1)[C@H](O)C[C@@H]2O)C1(c2ccccc2F)CC1 | 1.59 |
| CN(C)C(C(=O)NCC1(N(C)C)CCOCC1)c1ccccc1F (stereo not drawn) | -7.91 |
| Cc1ccc(C2(CN(C)Cc3snnc3C)CCNCC2)nc1 | -1.57 |
| O=C1CC(NCc2ccc(OC(F)F)cc2)CN1Cc1cccc(F)c1 (stereo not drawn) | -4.49 |
| Cc1ccc(CN(C)C(=O)C(C)n2ccnc2C(C)C)o1 (stereo not drawn) | -18.9 |
| CN(Cc1cc2n(n1)CCNC2)Cc1noc(C2CCC2)n1 | -3.21 |
| COc1ccc(Cl)cc1C(=O)N1C[C@H](C(C)C)[C@@H](N)C1 | 3.26 |
| CCc1nc(C)c(C(=O)N2CCNCC2C(=O)Nc2ccc(C)nc2)o1 (stereo not drawn) | -3.52 |
| NC(=O)c1ccc(CN2C(=O)C3(CCNCC3)Nc3ccccc32)cc1 | 26.6 |
| CCc1nc2ccccc2n1C(CC)C(=O)N(C)Cc1noc(C)n1 (stereo not drawn) | -19.8 |
| CCCOC1CCCN(Cc2nc(-c3cccs3)oc2C)C1 (stereo not drawn) | -1.07 |
| CCCc1cnc(C)nc1N1CCC(Cn2cc(C(C)O)nn2)CC1 (stereo not drawn) | -13.9 |
| CC(C)c1nccc(CN2CCCC(O)(CN(C)C)C2)n1 (stereo not drawn) | 15 |
| Cc1nnsc1CN1CCCC1c1nc(-c2ccccc2)no1 (stereo not drawn) | -3.77 |
| COCCC(=O)NCC1COc2cc(OC)ccc2C1 (stereo not drawn) | -12.7 |
| Cc1ncsc1CCC(=O)NC1CCN(Cc2cccs2)CC1 | -11.5 |
| CC(C)c1nc(CN(C)C(=O)c2ccccc2C2CCNC2)cs1 (stereo not drawn) | -8.26 |
| CC(CO)(CO)NC(=O)C1CCC(=O)N(Cc2ccc(Cl)cc2)C1 (stereo not drawn) | -2.86 |
| CCc1nc2c(N3CCC4(CC3)CC(=O)N(CC(C)C)C4)ncnc2o1 | 1.84 |
| Cc1nc2c(c(NCc3cc4ccccc4s3)n1)CCNCC2 | -5.12 |
| COCCc1noc(CN(C)c2nc(C)nc(C)c2C)n1 | 25.3 |

| Compound | cytotoxicity at 70.5 h [%] |
| --- | --- |
| O=C(CCc1nc(Cl)n[nH]1)N1CCC2(CCCN(CC3CCC3)C2=O)C1 (stereo not drawn) | -7.56 |
| Cc1cc(NCCNc2cccnc2)nc(-c2ccccc2O)n1 | 3.73 |
| CN1CC2(CCCN(c3cc(N4CCCCC4)ncn3)C2)OC1=O (stereo not drawn) | 12.1 |
| Cc1cc(=O)c2ccccc2n1CC1CCN(C(C)C)C1 (stereo not drawn) | -1.13 |
| CN(Cc1ccon1)C1CCN(c2cccc(-c3cscn3)c2)CC1 | -4.4 |
| O=c1[nH]c(-c2ccccc2)nc2c1CCN(S(=O)(=O)N1CCCC1)C2 | -7.26 |
| Cc1ncc(C)c(N2CCC(CCc3ccccc3)(C(=O)O)CC2)n1 | -10.1 |
| CCN1CCC(N2C[C@@H](C(=O)O)[C@H](c3cccc(OC)c3)C2)CC1 | -0.816 |
| Cn1c(Cn2ccnc2)nnc1C1CCCN(CC(C)(C)C)C1 (stereo not drawn) | -8.29 |
| CNC(=O)[C@@H]1C[C@@H](N)CN1C(=O)CCSCc1ccc(F)cc1 | 7.46 |
| COCC(=O)N1CCC2(CC1)CC(=O)N(Cc1ccc(Cl)cc1)C2 | -6.31 |
| COCCc1noc(CN(C)C(=O)C2COc3ccccc3C2)n1 (stereo not drawn) | -5.1 |
| Cc1cc(CN2CCC(CNC(=O)c3ccc(C#N)cc3)C2)[nH]n1 (stereo not drawn) | -0.514 |
| CC(C)S(=O)(=O)N1CCC(Cc2cccc(C(=O)O)c2)C1 (stereo not drawn) | -4.82 |
| C[C@H](N)C(=O)N1CCC(c2[nH]ncc2-c2ccccc2)CC1 | -4.88 |
| O=C(c1cccc(S(=O)(=O)NCCc2ccccn2)c1)N1CCOCC1 | -2.52 |
| COc1ccc(CN2CCC3(CCCN(C)C3=O)C2)c(Cl)c1OC (stereo not drawn) | 0.156 |
| COCCN(Cc1sccc1C)C(=O)C1CCCN(C(N)=O)C1 (stereo not drawn) | 9.09 |
| O=C1CCCN1CCc1noc(-c2ccc3[nH]cnc3c2)n1 | -8.29 |
| C/C(=C\c1ccco1)CN(C)C(C)c1ccccn1 (stereo not drawn) | 16.1 |
| Cc1cccc(OC2CN(C(=O)C3CC(=O)N(C(C)(C)C)C3)C2)c1 (stereo not drawn) | -2.82 |
| Cc1cc(C)n(CC(C)NCc2cnc3c(C)cccn23)n1 (stereo not drawn) | -2.32 |
| c1cc(-c2cn[nH]c2)ncc1CN1CCCCC1 | -6.79 |

| Compound | cytotoxicity at 70.5 h [%] |
| --- | --- |
| O=C(NCCc1nc(-c2cccnc2)no1)c1ccc(C2CCCO2)s1 (stereo not drawn) | 6.34 |
| COCCN1C[C@H]2CC[C@@H]1CN(C(=O)CCc1n[nH]c(C)c1C)C2 | 6.62 |
| OC(CNc1ccncn1)CN1CCCCCC1 (stereo not drawn) | -7.06 |
| O=C1NCCN(Cc2ccccc2)C1CC(=O)N1CCc2n[nH]cc2C1 (stereo not drawn) | 19.3 |
| COCC(NC1CCN(CC(C)C)CC1)c1ccnn1C (stereo not drawn) | -6.73 |
| CN(Cc1ccc(-n2cccn2)cc1)c1nc(N)nc2c1CCNCC2 | 12.6 |
| O[C@@]1(CNCCCOc2cccnc2)CCCN2CCCC[C@@H]21 | 5.47 |
| Cc1cc(N2CCOC(C(F)(F)F)C2)nc(-c2ccccc2O)n1 (stereo not drawn) | -6.3 |
| Cc1cc2nc(C(C)C)cc(N3CCC(Oc4ncccn4)CC3)n2n1 | 48.7 |
| CSc1ccc(C(=O)N2C[C@H]3CC[C@@H]2CN(Cc2ccccc2)C3)cc1 | -0.304 |
| COCCCN1C(=O)CC[C@H]2CN(c3ccnc4ccccc34)CC[C@H]21 | -5.09 |
| CC(C)Oc1ccc(CN2CCCC(N3CCOCC3)C2)cc1CO (stereo not drawn) | -5.76 |
| N#Cc1cccc(N2CCC(CO)(CCOc3ccccc3)CC2)n1 | -4.29 |
| Fc1ccc2[nH]c(C3CCCN3CCCn3cccn3)nc2c1 (stereo not drawn) | -6.03 |
| Cc1nc(N2CCCOC(Cn3cccn3)C2)c2sccc2n1 (stereo not drawn) | -2.92 |
| Cc1cc(C)c2[nH]c(CN3CCCC(N4CCOCC4)C3)cc(=O)c2c1 (stereo not drawn) | -5.41 |
| COCC(=O)N1CCC2(CCCN(Cc3cc(OC)ccc3F)C2)C1 (stereo not drawn) | -7.78 |
| CN(CCC(O)c1ccccc1)c1cc(N2CCOCC2)ncn1 (stereo not drawn) | -11 |
| CSCc1noc(C2CCC(=O)N(CCCN3CCCC3=O)C2)n1 (stereo not drawn) | -4.64 |
| CN(C)c1cnn(CC(=O)N2CCCCCC2)c(=O)c1 | -0.929 |
| CCc1nc(N)nc(NCCC(=O)N2CCCC2)c1C | 23.5 |
| COCc1nc(CNC(=O)C(C)n2ccnc2C(C)C)no1 (stereo not drawn) | -9.39 |
| O=C(C1CCC1)N1C[C@@H]2CC[C@H](C1)N(S(=O)(=O)c1cccnc1)C2 | -5.86 |

| Compound | cytotoxicity at 70.5 h [%] |
| --- | --- |
| Cn1ccc(C(=O)N2CCC3(CCC(=O)N(C4CCCC4)C3)CC2)n1 | 12.2 |
| Cc1ccccc1N1CC(C)N(C(=O)CCn2cccn2)CC1=O (stereo not drawn) | 15.3 |
| CCc1ncc2c(n1)CN(C(=O)c1c(C)[nH]c3c1C(=O)CCC3)C2 | 1.67 |
| CC(C)(CN1CCC(Cc2ccc(CO)cc2)C1)N1CCOCC1 (stereo not drawn) | -10.6 |
| CN(Cc1cc(-c2ccccc2)no1)Cc1nccn1C | 9.3 |
| N[C@H]1CN(S(=O)(=O)N2CCCCCC2)C[C@@H]1c1ccccc1 | 20 |
| COc1ccc(-c2noc(Cn3cc4c(n3)CCC4)n2)c(OC)c1OC | -2.31 |
| COCCN1CCCC2(CCN(C(=O)c3cnc(O)cn3)C2)C1=O (stereo not drawn) | -6.54 |
| CCCn1ncc(-c2nc3c(cnn3CC)[nH]2)c1C | -7.07 |
| O=C(O)CNc1cc(-c2cc(C(=O)NC3CC3)ccn2)c2cc[nH]c2n1 | -0.0958 |
| Cc1nn(C)cc1-c1ccnc(N(C)Cc2ccc(F)cc2)n1 | -4.85 |
| CC(C)CN1CC(C(=O)N(C)CCc2cn[nH]c2)CC1=O (stereo not drawn) | -6.49 |
| Cc1nc(N2Cc3cnn(Cc4ccc(F)cc4)c3C2)no1 | 13.6 |
| COc1ccc(CN2CCN(CC3CC3)[C@@H]3CS(=O)(=O)C[C@@H]32)cc1C | 10.6 |
| CCC(NC(=O)C(C)(C)C)c1ccccc1C (stereo not drawn) | 25.3 |
| COc1ccc(-c2n[nH]cc2CN(C)Cc2nnc(C)o2)c(F)c1 | 1.72 |
| CCC(Oc1ccc(N(C)S(C)(=O)=O)cc1)C(=O)N(C)C (stereo not drawn) | -3.36 |
| COCCN(C)CCN1CC2(CCN(C3CCCNC3)CC2)OC1=O (stereo not drawn) | -4.32 |
| CCCS(=O)(=O)N1CCN(c2ccnc(N3CCCCC3)n2)CC1 | -8.56 |
| CN(C)S(=O)(=O)N1CCN(c2ccnc(N3CCCCC3)n2)CC1 | -8.18 |
| COc1ccccc1NC(=O)c1cc2c([nH]c1=O)CCCC2=O | -11.1 |
| CCn1c(Cn2cncn2)nnc1C1CCN(CCN)CC1 | 17.7 |
| CCc1nnc(CN(CC)C(=O)C2CC(=O)N(CC)C2)o1 (stereo not drawn) | -1.3 |

| Compound | cytotoxicity at 70.5 h [%] |
| --- | --- |
| CCn1c(CN2CCCC2)nnc1C1CCN(Cc2cccnc2)CC1 | 19.5 |
| COc1ccc(NC(=O)Cn2nc(C)c(C)cc2=O)cc1 | 1.99 |
| CCCN1CCCC1c1ccc(C(=O)N2CCOCC2)s1 (stereo not drawn) | 0.549 |
| O=C(NCCCc1ccco1)c1ccc(N2CCOCC2)cc1 | 4.57 |
| COc1ccc2cc(C(=O)N3CC[C@H](CO)[C@H](O)C3)n(C)c2c1 | 2.19 |
| COCCN1C[C@H]2CC[C@@H]1CN(C(=O)c1ccc(Cl)cc1)C2 | -6 |
| COc1cc(-c2ccc(F)c3c2OC(CN)C3)cc(OC)c1OC (stereo not drawn) | 6.54 |
| CCC(=O)NCc1ccc(N2CCCCC2)cc1 | -2.28 |
| COc1cccc(-n2cc(CN(C)C(=O)c3cnc(O)cn3)cn2)c1 | -9 |
| COc1cccc(OC2CN(C(=O)c3ccoc3C)C2)c1 | 10.7 |
| Cn1ncc2c(NC3CCC3)nc(-c3ccncc3)nc21 | -0.235 |
| COC(=O)N1CCC2(CC1)CC(c1ccccc1)CN(C)C2 (stereo not drawn) | -0.459 |
| Cc1nc(NCCSc2cnn[nH]2)c2cccnc2n1 | 5.69 |
| CSc1ccc(CN(CCO)Cc2nccn2C)cc1 | -3.61 |
| COCCN(C)C[C@@H]1CN(c2cc(C)nc3ccccc23)C[C@@H]1CO | -14.9 |
| COCCCN1CCN(C(=O)C(c2cccc(F)c2)N(C)C)CC1 (stereo not drawn) | -5.78 |
| Cc1ccsc1CN1CCCC(CNC(=O)c2ccc(N)nc2)C1 (stereo not drawn) | -8.08 |
| CC(C)Cn1cncc1CNC1CCSCC1 | 42.7 |
| Cc1cnc(C(=O)N2CCCC(Cn3cc(C4CC4)nn3)C2)cn1 (stereo not drawn) | -10.1 |
| COc1ccccc1Oc1ncccc1CNC(=O)C1COC(=O)N1 (stereo not drawn) | -14.6 |
| CCCSc1ncc(-c2nccn2CCO)cn1 | -12.8 |
